Assay: xn = mol fraction of the nth substance listed

CCCCCCO + COC(=O)OC
Settings	viscosity [mPa·s]
293.15 K, 100 kPa, x2 = 0.1003	3.53
293.15 K, 100 kPa, x2 = 0.1998	2.47
293.15 K, 100 kPa, x2 = 0.3011	1.87
293.15 K, 100 kPa, x2 = 0.4001	1.51
293.15 K, 100 kPa, x2 = 0.5007	1.24
293.15 K, 100 kPa, x2 = 0.5987	0.95
293.15 K, 100 kPa, x2 = 0.7003	0.77
293.15 K, 100 kPa, x2 = 0.8013	0.71
293.15 K, 100 kPa, x2 = 0.9002	0.61
293.15 K, 101 kPa, x2 = 0.04349	4.578
293.15 K, 101 kPa, x2 = 0.1014	3.717
293.15 K, 101 kPa, x2 = 0.1936	2.761
293.15 K, 101 kPa, x2 = 0.3033	2.046
293.15 K, 101 kPa, x2 = 0.4078	1.6
293.15 K, 101 kPa, x2 = 0.5026	1.302
293.15 K, 101 kPa, x2 = 0.602	1.06
293.15 K, 101 kPa, x2 = 0.699	0.883
293.15 K, 101 kPa, x2 = 0.8055	0.756
293.15 K, 101 kPa, x2 = 0.9079	0.685
293.15 K, 101 kPa, x2 = 0.9562	0.648
298.15 K, 100 kPa, x2 = 0.1003	3.06
298.15 K, 100 kPa, x2 = 0.1998	2.17
298.15 K, 100 kPa, x2 = 0.3011	1.66
298.15 K, 100 kPa, x2 = 0.4001	1.34
298.15 K, 100 kPa, x2 = 0.5007	1.12
298.15 K, 100 kPa, x2 = 0.5987	0.92
298.15 K, 100 kPa, x2 = 0.7003	0.77
298.15 K, 100 kPa, x2 = 0.8013	0.66
298.15 K, 100 kPa, x2 = 0.9002	0.57
303.15 K, 100 kPa, x2 = 0.1003	2.67
303.15 K, 100 kPa, x2 = 0.1998	1.93
303.15 K, 100 kPa, x2 = 0.3011	1.48
303.15 K, 100 kPa, x2 = 0.4001	1.23
303.15 K, 100 kPa, x2 = 0.5007	1.02
303.15 K, 100 kPa, x2 = 0.5987	0.84
303.15 K, 100 kPa, x2 = 0.7003	0.72
303.15 K, 100 kPa, x2 = 0.8013	0.61
303.15 K, 100 kPa, x2 = 0.9002	0.54
303.15 K, 101 kPa, x2 = 0.04993	3.355
303.15 K, 101 kPa, x2 = 0.1121	2.759
303.15 K, 101 kPa, x2 = 0.1985	2.135
303.15 K, 101 kPa, x2 = 0.3013	1.623
303.15 K, 101 kPa, x2 = 0.4548	1.153
303.15 K, 101 kPa, x2 = 0.4939	1.069
303.15 K, 101 kPa, x2 = 0.5585	0.951
303.15 K, 101 kPa, x2 = 0.7038	0.747
303.15 K, 101 kPa, x2 = 0.7977	0.649
303.15 K, 101 kPa, x2 = 0.9079	0.571
303.15 K, 101 kPa, x2 = 0.9534	0.548
308.15 K, 100 kPa, x2 = 0.1003	2.35
308.15 K, 100 kPa, x2 = 0.1998	1.71
308.15 K, 100 kPa, x2 = 0.3011	1.33
308.15 K, 100 kPa, x2 = 0.4001	1.07
308.15 K, 100 kPa, x2 = 0.5007	0.93
308.15 K, 100 kPa, x2 = 0.5987	0.78
308.15 K, 100 kPa, x2 = 0.7003	0.67
308.15 K, 100 kPa, x2 = 0.8013	0.57
308.15 K, 100 kPa, x2 = 0.9002	0.53
313.15 K, 100 kPa, x2 = 0.1003	2.07
313.15 K, 100 kPa, x2 = 0.1998	1.53
313.15 K, 100 kPa, x2 = 0.3011	1.21
313.15 K, 100 kPa, x2 = 0.4001	0.99
313.15 K, 100 kPa, x2 = 0.5007	0.86
313.15 K, 100 kPa, x2 = 0.5987	0.72
313.15 K, 100 kPa, x2 = 0.7003	0.62
313.15 K, 100 kPa, x2 = 0.8013	0.53
313.15 K, 100 kPa, x2 = 0.9002	0.48
313.15 K, 101 kPa, x2 = 0.05023	2.521
313.15 K, 101 kPa, x2 = 0.1223	2.039
313.15 K, 101 kPa, x2 = 0.2131	1.599
313.15 K, 101 kPa, x2 = 0.3291	1.223
313.15 K, 101 kPa, x2 = 0.4005	1.061
313.15 K, 101 kPa, x2 = 0.4874	0.911
313.15 K, 101 kPa, x2 = 0.5997	0.76
313.15 K, 101 kPa, x2 = 0.6524	0.713
313.15 K, 101 kPa, x2 = 0.7994	0.572
313.15 K, 101 kPa, x2 = 0.9089	0.514
313.15 K, 101 kPa, x2 = 0.9495	0.501
318.15 K, 100 kPa, x2 = 0.1003	1.83
318.15 K, 100 kPa, x2 = 0.1998	1.37
318.15 K, 100 kPa, x2 = 0.3011	1.09
318.15 K, 100 kPa, x2 = 0.4001	0.91
318.15 K, 100 kPa, x2 = 0.5007	0.79
318.15 K, 100 kPa, x2 = 0.5987	0.67
318.15 K, 100 kPa, x2 = 0.7003	0.58
318.15 K, 100 kPa, x2 = 0.8013	0.51
318.15 K, 100 kPa, x2 = 0.9002	0.46
323.15 K, 100 kPa, x2 = 0.1003	1.63
323.15 K, 100 kPa, x2 = 0.1998	1.24
323.15 K, 100 kPa, x2 = 0.3011	0.99
323.15 K, 100 kPa, x2 = 0.4001	0.84
323.15 K, 100 kPa, x2 = 0.5007	0.73
323.15 K, 100 kPa, x2 = 0.5987	0.63
323.15 K, 100 kPa, x2 = 0.7003	0.55
323.15 K, 100 kPa, x2 = 0.8013	0.48
323.15 K, 100 kPa, x2 = 0.9002	0.43

CC(C)CC(C)(C)C + C1CCCCC1
viscosity [mPa·s]
Settings	298.15 K	303.15 K	308.15 K	313.15 K	318.15 K	323.15 K
101 kPa, x2 = 0.1052	–	0.4666	–	–	–	–
101 kPa, x2 = 0.1988	–	0.4842	–	–	–	–
101 kPa, x2 = 0.3026	–	0.505	–	–	–	–
101 kPa, x2 = 0.4095	–	0.5328	–	–	–	–
101 kPa, x2 = 0.5008	–	0.5579	–	–	–	–
101 kPa, x2 = 0.6005	–	0.5947	–	–	–	–
101 kPa, x2 = 0.7002	–	0.6379	–	–	–	–
101 kPa, x2 = 0.8014	–	0.6902	–	–	–	–
101.33 kPa, x1 = 0.035	0.8617	0.7932	0.7312	0.6779	0.6323	0.5887
101.33 kPa, x1 = 0.0662	0.8283	0.7645	0.7054	0.6567	0.6115	0.5733
101.33 kPa, x1 = 0.1012	0.8041	0.741	0.6844	0.6377	0.5952	0.5565
101.33 kPa, x1 = 0.1376	0.7806	0.718	0.6639	0.6192	0.5793	0.5402
101.33 kPa, x1 = 0.1754	0.7572	0.6953	0.6438	0.6	0.5628	0.5235
101.33 kPa, x1 = 0.2147	0.7344	0.6732	0.6242	0.5813	0.5467	–
101.33 kPa, x1 = 0.2557	0.7147	0.6528	0.6066	0.5646	0.5318	–
101.33 kPa, x1 = 0.2984	0.6954	0.633	0.5895	0.5483	0.5172	–
101.33 kPa, x1 = 0.343	0.6717	0.6129	0.5717	0.5322	0.5024	–
101.33 kPa, x1 = 0.3895	0.6484	0.5933	0.5545	0.5166	0.488	–
101.33 kPa, x1 = 0.4382	0.6219	0.5768	0.539	0.5029	0.4762	–
101.33 kPa, x1 = 0.4891	0.5959	0.5607	0.524	0.4895	0.4647	–
101.33 kPa, x1 = 0.5423	0.5752	0.5454	0.5098	0.4781	0.4527	–
101.33 kPa, x1 = 0.5982	0.5549	0.5306	0.496	0.4671	0.4411	–
101.33 kPa, x1 = 0.6569	0.5406	0.5132	0.4812	0.4546	0.4305	–
101.33 kPa, x1 = 0.7185	0.5267	0.4963	0.4668	0.4424	0.4203	–
101.33 kPa, x1 = 0.7834	0.5135	0.4848	0.457	0.4315	0.4106	–
101.33 kPa, x1 = 0.8517	0.5006	0.4737	0.4475	0.421	0.4013	–
101.33 kPa, x1 = 0.9238	0.4888	0.4625	0.4368	0.4131	0.3929	–
